# From US20140288040A1, “SUBSTITUTED BENZYLAMINE COMPOUNDS, THEIR USE IN MEDICINE, AND IN PARTICULAR THE TREATMENT OF HEPATITIS C VIRUS (HCV) INFECTION” (ASTEX THERAPEUTICS LIMITED, priority 2011, published 2014)
# pIC50: −log10 of the molar value. Structures can show the parent of a compound that is named as a salt. Where two headings read alike, the source gives them in different places.
# Tests used:
# [1] = test system: HCV subgenomic replicon in Huh-7 cells; test: Replicon assay, EC50 luciferase readout; type: cell-based, hepatitis C virus (HCV); settings: Hepatitis C virus, Huh-7, 72 h, single value, or second value of a pair x:y
# Description: The activities of compounds of the invention against HCV in a cellular environment were analysed using a replicon assay as described below.
# Thus, Huh-7 cells persistently infected with an HCV-RNA construct (Bartenschlager, R. Hepatitis C replicons: potential role for drug development. Nature Rev. Drug Discov. 1, 911-916 (2002)) comprising: 5′ and 3′ non-translated regions (NTR); the non-structural genes NS3 to NS5b; as well as the G418 drug resistance gene, neomycin, (for selection of cells carrying HCV replicon RNA) fused to the firefly Luciferase reporter gene (pFK13889luc-ubi-neoNS3-3′ET), were used to determine the cell based antiviral activity of compounds using luciferase activity as an indirect readout of HCV RNA load. In this assay […] huh-7 cells persistently infected with the HCV subgenomic replicon construct above were platedwell in a 96 well tissue culture plate. The cells were allowed to attach overnight in DMEM medium supplemented with 10% FBS 1% NEAA, and 250 μgml gentamicin. The following day the medium was replaced with 200 μlwell of fresh medium as described above lacking gentamicin. […] Plates were then incubated at 37° C. in an atmosphere of 5% CO2 and air for 72 h. […] The plate was then read at 535 nm (excitation) and 590 nm (emission) on a SpectraMax Gemini reader (Molecular Devices) to determine the number of viable cells by measuring the conversion of rezasurin (Alamar blue) to resorufin in response to mitochondrial activity. In order to determine the antiviral effect of these compounds EC50 values were determined by measuring the luciferase activity of the cells. Alamar blue solution was removed from the wells and replaced with 100 μlwell of medium along with 100 μlwell of Bright-Glo reagent and incubated at room temperature for 5 minutes before transferring 100 μlwell to a white bottom 96 well plate to read in a luminometer as described in the Bright-Glo Luciferase Assay System protocol (promega).
# [2] = target: T1, HCV NS3 protease (full length NS34a) (Hepatitis C virus genotype 1b, UniProt P26663); test: HCV NS3 protease assay (FRET, full length NS34a); type: biochemical
# T1 construct: The protease activity of the full length NS34a was measured using a FRET-based assay; made in house
# Procedure, shortened: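 Full-length NS34a incubated with compound and an NS4AB cleavage-site FRET peptide (QXL520 quencher, 5-FAMsp fluorophore) in 50 mM Tris pH8, 20 mM DTT, 1% CHAPS, 10% glycerol, 5% DMSO. Fluorescence followed for 30 minutes at room temperature; IC50 from initial rates of replicate progress curves.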
# [3] = Huh-7 replicon cells, 72 h, read-out: Activity EC50 (μM) (EC50 luciferase readout)
# [4] = protease activity of full length NS34a, FRET peptide substrate, read-out: Activity IC50
# [5] = read-out: Activity EC50 (μM) (EC50 luciferase readout), Huh-7 replicon cells, 72 h
# T1 sequence (P26663 1658-1711): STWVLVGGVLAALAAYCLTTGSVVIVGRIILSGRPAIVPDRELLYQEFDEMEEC
# T1 sequence (P26663 1027-1657): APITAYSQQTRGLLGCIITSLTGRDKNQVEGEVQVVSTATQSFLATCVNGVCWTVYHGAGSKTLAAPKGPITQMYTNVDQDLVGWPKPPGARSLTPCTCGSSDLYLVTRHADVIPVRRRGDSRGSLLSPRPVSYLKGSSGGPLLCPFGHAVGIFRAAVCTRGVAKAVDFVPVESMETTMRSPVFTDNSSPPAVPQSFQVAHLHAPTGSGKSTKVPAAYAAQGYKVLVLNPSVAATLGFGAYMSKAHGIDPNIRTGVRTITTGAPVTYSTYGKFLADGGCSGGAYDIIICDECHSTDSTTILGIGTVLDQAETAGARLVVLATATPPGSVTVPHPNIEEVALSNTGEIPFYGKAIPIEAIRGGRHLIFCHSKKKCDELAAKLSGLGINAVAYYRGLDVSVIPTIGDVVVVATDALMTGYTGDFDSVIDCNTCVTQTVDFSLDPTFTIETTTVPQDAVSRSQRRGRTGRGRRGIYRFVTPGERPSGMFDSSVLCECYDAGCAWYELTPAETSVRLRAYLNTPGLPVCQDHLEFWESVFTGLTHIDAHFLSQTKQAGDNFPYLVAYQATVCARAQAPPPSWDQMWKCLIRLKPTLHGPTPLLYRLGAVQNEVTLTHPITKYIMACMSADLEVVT
SMILES,"EC50 [1, 3] [µM]","pIC50 [2, 4]","pIC50 ([2]; IC50 values of 10-150 μM against the protease activity of the full length NS34a, or at least 40% inhibition of protease activity at a concentration of 100 μM)","EC50 [1, 5] [µM]"
"CC[C@H](NCCC(=O)NCCO)c1ccc(F)c(Oc2ccccc2)c1F [Example 92, 3-[(S)-1-(2,4-Difluoro-3-phenoxy-phenyl)-propylamino]-N-(2-hydroxy-ethyl)-propionamide.hydrochloride]",> 30,6.04,–,–
N[C@@H](CC1CCNCC1)c1ccc(F)c(Oc2ccccc2)c1F [Example 93],1.8,6.10,–,–
"C[C@H](CO)N[C@@H](CC1CCNCC1)c1ccc(F)c(Oc2ccccc2)c1F [Example 95B, (R)-2-[(S)-1-(2,4-Difluoro-3-phenoxy-phenyl)-2-piperidin-4-yl-ethylamino]-propan-1-ol.dihydrochloride]",0.16,6.39,–,–
C[C@@H](CO)N[C@@H](CC1CCNCC1)c1ccc(F)c(Oc2ccccc2)c1F [Example 96],0.24,5.17,–,–
"CC[C@@H](NCCC(N)=O)c1ccc(Cl)c(Oc2ccccc2)c1F [Example 97, 3-[(R)-1-(4-Chloro-2-fluoro-3-phenoxy-phenyl)-propylamino]-propionamide.hydrochloride]",> 10,6.08,–,–
C[C@@H](CC(N)=O)N[C@@H](CC1CCNCC1)c1ccc(F)c(Oc2ccccc2)c1F [Example 98],> 10,5.80,–,–
"CC[C@H](NCCO)c1ccc(F)c(Oc2ccccc2)c1F [Example 100, 2-[(S)-1-(2,4-Difluoro-3-phenoxy-phenyl)-propylamino]-ethanol.trifluoroacetate]",> 18,5.96,–,–
OCCN[C@@H](CC1CCNCC1)c1ccc(F)c(Oc2ccccc2)c1F [Example 101],0.23,5.89,–,–
"C[C@H](CC(=O)NCCN)NCc1ccc(Cl)c(Oc2ccccc2)c1F [Example 107, (R)—N-(2-Amino-ethyl)-3-(4-chloro-2-fluoro-3-phenoxy-benzylamino)-butyramide.dihydrochloride]",> 10,6.66,–,–
"Fc1ccc(CNc2ccncc2)c(F)c1Oc1ccccc1 [Example 110, (2,4-Difluoro-3-phenoxy-benzyl)-pyridin-4-yl-amine.hydrochloride]",2.3,5.59,–,–
"CC[C@@H](N)c1ccc(Cl)c(Oc2ccc(N)c(C)c2)c1F [Example 112, 4-[3-((R)-1-Amino-propyl)-6-chloro-2-fluoro-phenoxy]-2-methyl-phenylamine.dihydrochloride]",> 10,6.80,–,–
CC[C@H](N)c1ccc(Cl)c(Oc2ccc(N)nc2)c1F [Example 114],> 10,6.00,–,–
CC[C@@H](N)c1ccc(Cl)c(Oc2cccc(CO)c2)c1F [Example 115],> 10,5.74,–,–
CC[C@@H](N[C@@H](C)CC(N)=O)c1ccc(Cl)c(Oc2cccc(CO)c2)c1F [Example 116],0.19,6.89,–,–
CCC[C@@H](N)c1ccc(Cl)c(Oc2ccccc2)c1F [Example 118],4.4,5.77,–,–
CCC[C@H](N)c1ccc(Cl)c(Oc2ccccc2)c1F [Example 119],3.4,6.49,–,–
CC[C@@H](N[C@H](C)CC(N)=O)c1ccc(Cl)c(Oc2ccc(N)nc2)c1F [Example 123],4.7,5.80,–,–
CC[C@@H](N[C@@H](C)CC(N)=O)c1ccc(Cl)c(Oc2ccc(N)nc2)c1F [Example 124],0.28,6.96,–,–
CCC[C@@H](N[C@@H](C)CC(N)=O)c1ccc(Cl)c(Oc2ccccc2)c1F [Example 125],0.38,6.64,–,–
CC[C@@H](N[C@@H](C)CC(N)=O)c1ccc(Cl)c(Oc2ccc(N)c(C)c2)c1F [Example 127],0.014,6.96,–,–
CC[C@@H](N[C@H](C)CC(N)=O)c1ccc(Cl)c(Oc2ccc(N)c(C)c2)c1F [Example 128],> 10,5.92,–,–
"CC[C@@H](N[C@@H](C)CC(=O)NC)c1ccc(Cl)c(Oc2ccccc2)c1F [Example 131A, (S)-3-[(R)-1-(4-Chloro-2-fluoro-3-phenoxy-phenyl)-propylamino]-N-methyl-butyramide.hydrochloride]",> 10,5.92,–,–

SMILES,"EC50 [1, 3] [µM]","pIC50 [2, 4]","pIC50 ([2]; IC50 values of 10-150 μM against the protease activity of the full length NS34a, or at least 40% inhibition of protease activity at a concentration of 100 μM)","EC50 [1, 5] [µM]"
"CC[C@@H](CC(N)=O)N[C@H](CC)c1ccc(Cl)c(Oc2ccccc2)c1F [Example 134B, (S)-3-[(R)-1-(4-Chloro-2-fluoro-3-phenoxy-phenyl)-propylamino]-pentanoic acid amide.hydrochloride]",0.4,7.08,–,–
CC[C@H](Nc1cccc2c1CNCC2)c1ccc(F)c(Oc2ccccc2)c1F [Example 137],7.8,6.35,–,–
CC[C@@H](N[C@H](CC(N)=O)C(C)C)c1ccc(Cl)c(Oc2ccccc2)c1F [Example 143],6.2,6.27,–,–
"CC[C@@H](N[C@@H](C)c1cn[nH]c1)c1ccc(Cl)c(Oc2ccccc2)c1F [Example 145A, [(R)-1-(4-Chloro-2-fluoro-3-phenoxy-phenyl)-propyl]-[(S)-1-(1H-pyrazol-4-yl)-ethyl]-amine. dihydrochloride]",9.5,5.13,–,–
CC[C@@H](N[C@@H](C)CC(=O)NN)c1ccc(Cl)c(Oc2ccccc2)c1F [Example 154],17,6.74,–,–
CC[C@@H](N[C@@H](C)CC(=O)NOC)c1ccc(Cl)c(Oc2ccccc2)c1F [Example 155],> 10,5.77,–,–
"CC[C@@H](N[C@H](C)c1cc[nH]c1)c1ccc(Cl)c(Oc2ccccc2)c1F [Example 163, [(R)-1-(4-Chloro-2-fluoro-3-phenoxy-phenyl)-propyl]-1-[(R)-1-(1H-pyrrol-3-yl)-ethyl]-amine.dihydrochloride]",0.94,5.60,–,–
CC[C@@H](N[C@@H](C)c1cc[nH]c1)c1ccc(Cl)c(Oc2ccccc2)c1F [Example 164],2.3,6.57,–,–
CC[C@@H](N[C@H](CC(N)=O)C1CC1)c1ccc(Cl)c(Oc2ccccc2)c1F [Example 165],> 10,–,3.82 to 5.00,–
CC[C@@H](N[C@@H](C)CC(=O)NCC(N)=O)c1ccc(Cl)c(Oc2ccccc2)c1F [Example 178],8,5.66,–,–
CC[C@@H](N[C@@H](C)CC(N)=O)c1ccc(Cl)c(Oc2ccc(C#N)cc2)c1F [Example 186],0.13,7.41,–,–
CC[C@@H](N[C@@H](C)CC(N)=O)c1ccc(Cl)c(Oc2cccc(NS(C)(=O)=O)c2)c1F [Example 196],0.27,6.38,–,–
CC[C@@H](N[C@@H](C)CC(N)=O)c1ccc(Cl)c(Oc2ccc([N+](=O)[O-])cc2)c1F [Example 201],> 10,6.70,–,–
CC[C@@H](N[C@@H](C)CC(=O)N[C@H](C)CO)c1ccc(Cl)c(Oc2ccccc2)c1F [Example 207],–,6.68,–,> 10
CC[C@@H](N[C@@H](C)CC(N)=O)c1ccc(Cl)c(Oc2ccc(C#N)c(OC)c2)c1F [Example 210],–,6.80,–,0.2
CC[C@@H](N[C@@H](C)CC(N)=O)c1ccc(Cl)c(Oc2ccc(CC#N)cc2)c1F [Example 211],–,7.14,–,0.066
CC[C@@H](N[C@H](C)CC(N)=O)c1ccc(Cl)c(Oc2ccc(CC#N)cc2)c1F [Example 212],–,6.09,–,> 10
CC[C@@H](N[C@@H](C)CC(N)=O)c1ccc(Cl)c(Oc2ccc(C#N)c(F)c2)c1F [Example 213],5.2,6.89,–,–
CC[C@@H](N[C@@H](C)CC(N)=O)c1ccc(Cl)c(Oc2cccc(CNS(C)(=O)=O)c2)c1F [Example 216],> 10,6.01,–,–
CC[C@@H](N[C@@H](C)CC(N)=O)c1ccc(Cl)c(Oc2ccc(-c3cnco3)cc2)c1F [Example 219],0.32,6.66,–,–
CC[C@@H](N)c1ccc(Cl)c(Oc2ccc(C#N)c(C)c2)c1F [Example 221],> 30,6.37,–,–
CC[C@@H](N[C@@H](C)CC(=O)NC1COC1)c1ccc(Cl)c(Oc2ccccc2)c1F [Example 222],> 10,6.43,–,–
